Source: PubChem BioAssay (NCI)
Several values for one entry are separate records, joined by “and”; a condition that tells them apart may be missing. Equal values may be shown once.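 Step 1: Grow cells in 96-well plates. Step 2: Expose to compound for 48 hours at 5 concentrations. Step 3: Interpolate endpoints linearly; if unreached, use highest concentration. The concentration for 50% growth inhibition is given as GI50. The concentration for full growth arrest is given as TGI.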

Columns and labels:
Assay in all cases: NCI tumour cell line growth inhibition, 48 h
MALME-3M melanoma = tested on: MALME-3M melanoma
IGROV1 ovarian = tested on: IGROV1 ovarian
MDA-MB-231 breast = tested on: MDA-MB-231 breast
MCF7 breast = tested on: MCF7 breast
SK-OV-3 ovarian = tested on: SK-OV-3 ovarian
SK-MEL-2 melanoma = tested on: SK-MEL-2 melanoma
CAKI-1 renal = tested on: CAKI-1 renal
K-562 leukemia = tested on: K-562 leukemia
OVCAR-3 ovarian = tested on: OVCAR-3 ovarian
MOLT-4 leukemia = tested on: MOLT-4 leukemia

## Cc1cn2c(=O)n(c1=O)Cc1ccccc1C2
MALME-3M melanoma
  GI50: > 100 µM
  TGI: > 100 µM
IGROV1 ovarian
  GI50: 41.7 µM
  TGI: > 100 µM
MDA-MB-231 breast
  GI50: 5.84 µM
  TGI: > 100 µM
MCF7 breast
  GI50: 35.1 µM
  TGI: > 100 µM
SK-OV-3 ovarian
  GI50: 5.79 µM
  TGI: > 100 µM
SK-MEL-2 melanoma
  GI50: > 100 µM
  TGI: > 100 µM
CAKI-1 renal
  GI50: > 100 µM
  TGI: > 100 µM
K-562 leukemia
  GI50: > 100 µM
  TGI: > 100 µM
OVCAR-3 ovarian
  GI50: > 100 µM
  TGI: > 100 µM

## COc1ccc2c(c1)C(=O)c1c-2n(CCCN2CCOCC2)c(=O)c2cc([N+](=O)[O-])ccc12
MALME-3M melanoma
  GI50: < 0.0117 µM
  TGI: 0.779 µM
IGROV1 ovarian
  GI50: < 0.01 µM
  TGI: 25.7 µM
MDA-MB-231 breast
  GI50: 0.661 µM
  TGI: 17.3 µM
MCF7 breast
  GI50: < 0.01 µM
  TGI: > 100 µM
SK-OV-3 ovarian
  GI50: < 0.01 µM
  TGI: 14.5 µM
SK-MEL-2 melanoma
  GI50: 0.0763 µM
  TGI: 3.95 µM
CAKI-1 renal
  GI50: < 0.01 µM
  TGI: 0.53 µM
K-562 leukemia
  GI50: < 0.01 µM
  TGI: > 37 µM
MOLT-4 leukemia
  GI50: < 0.01 µM
OVCAR-3 ovarian
  GI50: < 0.0113 µM
  TGI: 1.49 µM

## Oc1ccc(CN(Cc2ccc(C(F)(F)F)cc2)Cc2ccc(O)c3ncccc23)c2cccnc12
MALME-3M melanoma
  GI50: 0.0461 µM
  TGI: > 100 µM
IGROV1 ovarian
  GI50: 0.0584 µM
  TGI: > 100 µM
MDA-MB-231 breast
  GI50: 0.0566 µM
  TGI: > 100 µM
MCF7 breast
  GI50: < 0.01 µM
  TGI: > 100 µM
SK-OV-3 ovarian
  GI50: 0.0655 µM
  TGI: > 48.3 µM
SK-MEL-2 melanoma
  GI50: 0.0232 µM
  TGI: 0.0804 µM
CAKI-1 renal
  GI50: 0.0428 µM
K-562 leukemia
  GI50: 0.0224 µM
  TGI: > 100 µM
MOLT-4 leukemia
  GI50: 0.0818 µM
  TGI: > 100 µM
OVCAR-3 ovarian
  GI50: 0.0319 µM
  TGI: 60.4 µM

## CNCCOC(=O)/C=C1/CCC2C(C(O)CC3C(C)(C(=O)OC)CCCC23C)C1C (stereo unspecified)
MALME-3M melanoma
  GI50: 0.0253 µM
  TGI: 0.0599 µM
IGROV1 ovarian
  GI50: 0.0305 µM
  TGI: 0.0971 µM
MDA-MB-231 breast
  GI50: 0.0604 µM
  TGI: 0.229 µM
MCF7 breast
  GI50: 0.0213 µM
  TGI: 0.071 µM
SK-OV-3 ovarian
  GI50: 0.0205 µM
  TGI: 0.0394 µM
SK-MEL-2 melanoma
  GI50: 0.0317 µM
  TGI: 0.0805 µM
CAKI-1 renal
  GI50: 0.0202 µM
  TGI: 0.053 µM
K-562 leukemia
  GI50: 0.0308 µM
  TGI: 0.0953 µM
MOLT-4 leukemia
  GI50: < 0.01 µM
  TGI: 0.0203 µM
OVCAR-3 ovarian
  GI50: < 0.0139 µM
  TGI: 0.0276 µM

## Cc1cc(NC(=O)NC(=O)c2ccccc2NC(=O)CN)ccc1Oc1ncc(Br)cn1
MALME-3M melanoma
  GI50: < 0.01 µM
  TGI: 75 µM and 89.6 µM
IGROV1 ovarian
  GI50: 0.284 µM
  TGI: 27.7 µM and 49.5 µM
MDA-MB-231 breast
  TGI: 5.17 µM and 14 µM
MCF7 breast
  GI50: 0.174 µM
  TGI: 23.3 µM and > 100 µM
SK-OV-3 ovarian
  TGI: 35.8 µM and 13.9 µM
SK-MEL-2 melanoma
  GI50: 21.2 µM
  TGI: 9.7 µM and 52.9 µM
CAKI-1 renal
  TGI: 2.61 µM
K-562 leukemia
  GI50: 0.0285 µM
MOLT-4 leukemia
  GI50: 0.0807 µM
  TGI: 75 µM and > 100 µM
OVCAR-3 ovarian
  GI50: 0.0157 µM

## COc1cc2c(cc1OCCCN1CCN(c3cc(=O)oc4c(C)c(OC)ccc34)CC1)N=C[C@@H]1CCCN1C2=O
MALME-3M melanoma
  GI50: 1.16 µM
  TGI: 3.59 µM
IGROV1 ovarian
  GI50: 1.57 µM
  TGI: 6.05 µM
MDA-MB-231 breast
  GI50: 0.984 µM
  TGI: 5.99 µM
MCF7 breast
  GI50: 0.787 µM
  TGI: > 39.7 µM
SK-OV-3 ovarian
  GI50: 10.2 µM
  TGI: > 78.4 µM
SK-MEL-2 melanoma
  GI50: 1.09 µM
  TGI: 3.98 µM
CAKI-1 renal
  GI50: 2.46 µM
  TGI: 7.17 µM
K-562 leukemia
  GI50: 0.456 µM
  TGI: > 20.9 µM
MOLT-4 leukemia
  GI50: 0.372 µM
  TGI: 3.7 µM
OVCAR-3 ovarian
  GI50: 0.471 µM
  TGI: 3.65 µM

## COC(=O)[C@]12CC=C3O[C@@H]4OC5(CCCCC5)O[C@@H]4[C@H]3C1C(=O)C=CC2=O (stereo partly specified)
MALME-3M melanoma
  TGI: 34.2 µM
IGROV1 ovarian
  TGI: 34.5 µM
MDA-MB-231 breast
  TGI: 32.8 µM
MCF7 breast
  TGI: 35.5 µM
SK-OV-3 ovarian
  TGI: 48.7 µM
SK-MEL-2 melanoma
  TGI: 48.4 µM
CAKI-1 renal
  TGI: 30.4 µM
K-562 leukemia
  TGI: 65 µM
MOLT-4 leukemia
  TGI: 21.4 µM
OVCAR-3 ovarian
  TGI: 28.7 µM

## COc1cc(-c2n/c(=C\c3c(O)[nH]c4ccccc34)cc3c2=Nc2ccccc2-3)cc(OC)c1OC
MALME-3M melanoma
  GI50: 0.448 µM
  TGI: > 100 µM
IGROV1 ovarian
  GI50: 2 µM
  TGI: > 24.5 µM
MDA-MB-231 breast
  GI50: 2.11 µM
  TGI: > 28.2 µM
MCF7 breast
  GI50: 0.363 µM
  TGI: > 23.2 µM
SK-OV-3 ovarian
  GI50: 4.58 µM
  TGI: > 100 µM
SK-MEL-2 melanoma
  GI50: 1.41 µM
  TGI: 29.6 µM
CAKI-1 renal
  TGI: > 100 µM
K-562 leukemia
  GI50: 0.586 µM
  TGI: > 100 µM
MOLT-4 leukemia
  GI50: 0.528 µM
  TGI: 7.34 µM
OVCAR-3 ovarian
  GI50: 0.506 µM
  TGI: 2.6 µM

## COc1cc2c3c(n(C)c(=O)c2cc1OC)-c1cc2c(cc1/C3=C/[C@H](N)CCCCN)OCO2
MALME-3M melanoma
  GI50: 0.0491 µM
  TGI: 0.7 µM
IGROV1 ovarian
  GI50: 1.27 µM
  TGI: 7.43 µM
MDA-MB-231 breast
  GI50: 0.941 µM
  TGI: 6.22 µM
MCF7 breast
  GI50: 0.537 µM
  TGI: 3.93 µM
SK-OV-3 ovarian
  GI50: 1.4 µM
  TGI: > 24.7 µM
SK-MEL-2 melanoma
  GI50: 2.68 µM
  TGI: 8.98 µM
CAKI-1 renal
  GI50: 1.23 µM
  TGI: 11.5 µM
K-562 leukemia
  GI50: 4.68 µM
  TGI: > 100 µM
MOLT-4 leukemia
  TGI: > 100 µM
OVCAR-3 ovarian
  GI50: 1.45 µM
  TGI: 9.89 µM

## CO/C(=N\N=C\c1cccc(C(F)(F)F)c1)c1ccncc1
MALME-3M melanoma
  GI50: 9.42 µM
  TGI: > 100 µM
IGROV1 ovarian
  TGI: 79.3 µM
MDA-MB-231 breast
  GI50: 10.8 µM
  TGI: > 100 µM
MCF7 breast
  GI50: 7.33 µM
  TGI: > 100 µM
SK-OV-3 ovarian
  TGI: 99.1 µM
SK-MEL-2 melanoma
  GI50: 22.6 µM
  TGI: > 100 µM
CAKI-1 renal
  TGI: 9.48 µM
K-562 leukemia
  GI50: 3.08 µM
  TGI: > 100 µM
OVCAR-3 ovarian
  TGI: 84.1 µM

## Oc1cc(Cl)ccc1Cc1ccc(Cl)cc1O
MALME-3M melanoma
  GI50: 4.32 µM
  TGI: 19.2 µM
IGROV1 ovarian
  GI50: 12.5 µM
  TGI: 31.2 µM
MDA-MB-231 breast
  GI50: 11.6 µM
  TGI: 36.3 µM
MCF7 breast
  GI50: 13.2 µM
  TGI: 27.9 µM
SK-OV-3 ovarian
  GI50: 20.6 µM
  TGI: 43.3 µM
SK-MEL-2 melanoma
  GI50: 14.8 µM
  TGI: 38.8 µM
CAKI-1 renal
  GI50: 18.2 µM
  TGI: 43 µM
K-562 leukemia
  GI50: 5.69 µM
  TGI: > 100 µM
MOLT-4 leukemia
  GI50: 9.24 µM
  TGI: > 100 µM
OVCAR-3 ovarian
  GI50: 3.71 µM
  TGI: 13.9 µM

## CCCCCCN1CCN(Cc2ccc(N(CC)CC)cc2)C(=O)C1=O
MALME-3M melanoma
  GI50: 4.25 µM
  TGI: > 100 µM
IGROV1 ovarian
  GI50: 6.63 µM
  TGI: > 100 µM
MDA-MB-231 breast
  GI50: 4.97 µM
  TGI: > 100 µM
MCF7 breast
  GI50: 0.58 µM
  TGI: 62.2 µM
SK-OV-3 ovarian
  GI50: 3.61 µM
  TGI: > 100 µM
SK-MEL-2 melanoma
  GI50: 3.57 µM
  TGI: 21.2 µM
CAKI-1 renal
  GI50: 7.23 µM
  TGI: > 100 µM
K-562 leukemia
  GI50: 0.832 µM
  TGI: 75.4 µM
MOLT-4 leukemia
  GI50: 3.42 µM
  TGI: 32.8 µM

## COc1ccc(C(=O)CC(c2ccc(OC)c(OC)c2)c2c(O)c3ccccc3oc2=O)cc1OC (stereo unspecified)
MALME-3M melanoma
  TGI: > 100 µM
IGROV1 ovarian
  TGI: > 100 µM
MDA-MB-231 breast
  TGI: > 100 µM
MCF7 breast
  TGI: > 100 µM
SK-OV-3 ovarian
  TGI: > 100 µM
SK-MEL-2 melanoma
  TGI: > 100 µM
CAKI-1 renal
  TGI: > 100 µM
K-562 leukemia
  TGI: > 100 µM
MOLT-4 leukemia
  TGI: > 100 µM
OVCAR-3 ovarian
  TGI: > 100 µM

## CCOC(=O)/C(=C\c1ccc(F)cc1)C(C)=O
MALME-3M melanoma
  TGI: 43.1 µM
IGROV1 ovarian
  TGI: 38.9 µM
MDA-MB-231 breast
  TGI: 52 µM
MCF7 breast
  TGI: 96.6 µM
SK-OV-3 ovarian
  TGI: > 100 µM
SK-MEL-2 melanoma
  TGI: 41.2 µM
CAKI-1 renal
  TGI: > 100 µM
K-562 leukemia
  TGI: > 100 µM
MOLT-4 leukemia
  TGI: 89 µM
OVCAR-3 ovarian
  TGI: > 100 µM
